Source: patent US4698350A, “1-ethyl-6-fluoro-1,4-dihydro- 7-(2,6-dimethyl-4-pyridinyl)-4-oxo-3-quinolinecarboxylic acid and antibacterial use thereof” (Sterling Drug Inc., priority 1984, dated 1987)
“Also recorded” adds a separate entry of the source.

Tested on: all thirteen of the target anaerobic microorganisms
Assay: Antimicrobial activity against anaerobic microorganisms
Type: cell-based
Description: 1. Maintenance. Prior to use, all strains were maintained in the lyophilized state. During the study, cultures were examined on blood agar basal medium supplemented with 5.0% (v/v) defibrinated rabbit blood. Culture transfer was accomplished weekly with all cultures being incubated in an anaerobic atmosphere (GasPak jar; BBL).
2. Agar Medium. The basal test medium consisted of trypticase soy agar (40 g), yeast extract (1 g), glucose (2 g) and 960 ml of distilled water pH 7.2. [Mashimo et al., J. Clin. Micro. 17, 187-191 (1983)]. Subsequent to sterilization and cooling to 50° C., the medium was supplemented with 4% (v/v) defibrinated rabbit blood and 0.5 μg/ml menadione (Vitamin K3) The agent under evaluation was also added at this time to the concentration desired. Subsequent to pouring of the plates, they were permitted to dry at 4° C. for 24 hr.
3. Determination of Agent MIC. The minimal inhibitory concentration (MIC) of the various test agents was determined using an agar dilution technique. Agents and appropriate reference compounds were added to achieve a series of concentrations ranging between 32 μg/ml and 0.007 μg/ml. The inocula were prepared from 96-hr. cultures grown on the maintenance medium. Subsequent to a purity evaluation, colonies were removed and suspended in trypticase soy broth supplemented with 5 μg/ml menadione and 2% lysed rabbit blood filtrate to achieve an OD650 of 0.1 (this corresponded to approximately 10^8 cells/ml). Cultures were inoculated aerobically on the modified trypticase soy blood agar plates by use of a Steer's replicator (which delivers about 10^5 cells per spot). The plates were allowed to dry for a time not exceeding 30 min. and then incubated at 37° C. under an atmosphere of […], 10% H2 and 5% CO2 maintained in an anaerobic chamber (Coy Manufacturing Co.) for 48 hr. The MIC was defined as the lowest concentration completely inhibiting growth.
Tetracycline stock solutions (1 mg/ml) were made subsequent to dissolution in water. Stock solutions (1 mg/ml) of the remaining test compounds were made subsequent to dissolution in 1/10 N NaOH.

In the case of `CCn1cc(C(=O)O)c(=O)c2cc(F)c(-c3cc(C)nc(C)c3)cc21` [Win 52,522, 1-ethyl-6-fluoro-1,4-dihydro-7-(2,6-dimethyl-4-pyridinyl)-4-oxo-3-quinolinecarboxylic acid], the “antimicrobial activity (in words)” value is reported as “high activity against all thirteen of the target anaerobic microorganisms; also recorded: extremely active against a number of anaerobic microorganisms; also recorded: markedly superior to both Win 35,213 and 35,439; also recorded: broad spectrum of antimicrobial activity, comparing favorably with the currant antibiotic of choice, tetracycline”.
